How the values were obtained:
Experiment in all cases: KINOMEscan
Format in all cases: binding
Details in all cases: 1 μM of compound 4; read-out: POC
EPHB3 = molecular target: T1, EPHB3 (Homo sapiens, UniProt P54753)
T1 construct: purchased Eurofins DiscoverX (KINOMEscan service)

TAOK2 = molecular target: T2, TAOK2 (Homo sapiens, UniProt Q9UL54)
T2 construct: purchased Eurofins DiscoverX Corporation

AMPK-alpha2 = AMPK-alpha2 (Homo sapiens, UniProt P54646)
CSNK2A2 = CSNK2A2 (Homo sapiens, UniProt P19784)
PRKD1 = PRKD1 (Homo sapiens, UniProt Q15139)
DYRK2 = DYRK2 (Homo sapiens, UniProt Q92630)
MEK6 = MEK6 (Homo sapiens, UniProt P52564)
CDK5 = CDK5 (Homo sapiens, UniProt Q00535)
PIK3CA(E542K) = PIK3CA(E542K) (Homo sapiens, UniProt P42336, E542K)
STK33 = molecular target: T3, STK33 (Homo sapiens, UniProt Q9BYT3)
T3 construct: purchased Eurofins DiscoverX (KINOMEscan service)

BMPR1A = BMPR1A (Homo sapiens, UniProt P36894)
ERBB4 = molecular target: T4, ERBB4 (Homo sapiens, UniProt Q15303)
T4 construct: purchased Eurofins DiscoverX Corporation

RIOK1 = molecular target: T5, RIOK1 (Homo sapiens, UniProt Q9BRS2)
T5 construct: purchased Eurofins DiscoverX Corporation (KINOMEscan screening service)

EPHA7 = molecular target: T6, EPHA7 (Homo sapiens, UniProt Q15375)
T6 construct: purchased Eurofins DiscoverX (KINOMEscan service)

CAMK2D = CAMK2D (Homo sapiens, UniProt Q13557)
GRK2 = molecular target: T7, GRK2 (Homo sapiens, UniProt P25098)
T7 construct: purchased Eurofins DiscoverX Corporation

EGFR(L858R) = EGFR(L858R) (Homo sapiens, UniProt P00533, L858R); set-up: purchased Eurofins DiscoverX (KINOMEscan service)
DMPK = DMPK (Homo sapiens, UniProt Q09013)
CDK8 = CDK8 (Homo sapiens, UniProt P49336)
SRMS = molecular target: T8, SRMS (Homo sapiens, UniProt Q9H3Y6)
T8 construct: purchased Eurofins DiscoverX (KINOMEscan service)

BRK = BRK (Homo sapiens, UniProt Q13882)
RET(V804M) = molecular target: T9, RET(V804M) (Homo sapiens, UniProt P07949, V804M)
T9 construct: purchased Eurofins DiscoverX Corporation (KINOMEscan screening service)

RET(M918T) = molecular target: T10, RET(M918T) (Homo sapiens, UniProt P07949, M918T)
T10 construct: purchased Eurofins DiscoverX Corporation (KINOMEscan screening service)

[1] = molecular target: T11, RSK1(Kin.Dom.1-N-terminal) (Homo sapiens, UniProt Q15418)
T11 construct: RSK1(Kin.Dom.1-N-terminal); purchased Eurofins DiscoverX Corporation (KINOMEscan screening service)

PKAC-beta = PKAC-beta (Homo sapiens, UniProt P22694)
RIOK2 = molecular target: T12, RIOK2 (Homo sapiens, UniProt Q9BVS4)
T12 construct: purchased Eurofins DiscoverX Corporation (KINOMEscan screening service)

MAP3K15 = MAP3K15 (Homo sapiens, UniProt Q6ZN16)
SNARK = molecular target: T13, SNARK (Homo sapiens, UniProt Q9H093)
T13 construct: purchased Eurofins DiscoverX (KINOMEscan service)

TRKB = molecular target: T14, TRKB (Homo sapiens, UniProt Q16620)
T14 construct: purchased Eurofins DiscoverX Corporation

KIT(V559D + T670I) = KIT(V559D + T670I) (Homo sapiens, UniProt P10721, T670I/V559D)
IRAK3 = IRAK3 (Homo sapiens, UniProt Q9Y616)
STK39 = molecular target: T15, STK39 (Homo sapiens, UniProt Q9UEW8)
T15 construct: purchased Eurofins DiscoverX (KINOMEscan service)

WNK2 = molecular target: T16, WNK2 (Homo sapiens, UniProt Q9Y3S1)
T16 construct: purchased Eurofins DiscoverX

MST1R = MST1R (Homo sapiens, UniProt Q04912)
PDGFRB = molecular target: T17, PDGFRB (Homo sapiens, UniProt P09619)
T17 construct: purchased Eurofins DiscoverX Corporation (KINOMEscan)

HIPK1 = molecular target: T18, HIPK1 (Homo sapiens, UniProt Q86Z02)
T18 construct: purchased Eurofins DiscoverX Corporation

ERK8 = molecular target: T19, ERK8 (Homo sapiens, UniProt Q8TD08)
T19 construct: purchased Eurofins DiscoverX Corporation

PIP5K1C = PIP5K1C (Homo sapiens, UniProt O60331)

T14 sequence (Q16620 32-822): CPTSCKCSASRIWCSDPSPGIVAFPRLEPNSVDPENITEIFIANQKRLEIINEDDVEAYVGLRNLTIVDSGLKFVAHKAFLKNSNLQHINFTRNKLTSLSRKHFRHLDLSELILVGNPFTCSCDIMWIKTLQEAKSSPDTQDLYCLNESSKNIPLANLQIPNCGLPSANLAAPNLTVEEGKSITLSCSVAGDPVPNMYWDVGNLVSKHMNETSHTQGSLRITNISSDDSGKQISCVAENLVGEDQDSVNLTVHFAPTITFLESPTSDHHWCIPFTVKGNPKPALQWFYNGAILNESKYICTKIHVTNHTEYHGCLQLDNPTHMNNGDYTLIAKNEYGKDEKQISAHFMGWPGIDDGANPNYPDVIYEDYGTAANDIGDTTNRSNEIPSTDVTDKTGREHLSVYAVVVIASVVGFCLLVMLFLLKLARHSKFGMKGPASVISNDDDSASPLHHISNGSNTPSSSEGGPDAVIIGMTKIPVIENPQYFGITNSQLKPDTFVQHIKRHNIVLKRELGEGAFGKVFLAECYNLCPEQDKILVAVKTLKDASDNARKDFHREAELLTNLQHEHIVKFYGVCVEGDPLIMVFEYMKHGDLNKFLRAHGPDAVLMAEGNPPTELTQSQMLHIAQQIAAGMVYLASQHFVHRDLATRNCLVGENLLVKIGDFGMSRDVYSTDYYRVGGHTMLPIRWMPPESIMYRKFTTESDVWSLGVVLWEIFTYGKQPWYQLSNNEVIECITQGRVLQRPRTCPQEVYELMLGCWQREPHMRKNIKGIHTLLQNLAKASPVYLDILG
T10 sequence (P07949 29-1114 M918T): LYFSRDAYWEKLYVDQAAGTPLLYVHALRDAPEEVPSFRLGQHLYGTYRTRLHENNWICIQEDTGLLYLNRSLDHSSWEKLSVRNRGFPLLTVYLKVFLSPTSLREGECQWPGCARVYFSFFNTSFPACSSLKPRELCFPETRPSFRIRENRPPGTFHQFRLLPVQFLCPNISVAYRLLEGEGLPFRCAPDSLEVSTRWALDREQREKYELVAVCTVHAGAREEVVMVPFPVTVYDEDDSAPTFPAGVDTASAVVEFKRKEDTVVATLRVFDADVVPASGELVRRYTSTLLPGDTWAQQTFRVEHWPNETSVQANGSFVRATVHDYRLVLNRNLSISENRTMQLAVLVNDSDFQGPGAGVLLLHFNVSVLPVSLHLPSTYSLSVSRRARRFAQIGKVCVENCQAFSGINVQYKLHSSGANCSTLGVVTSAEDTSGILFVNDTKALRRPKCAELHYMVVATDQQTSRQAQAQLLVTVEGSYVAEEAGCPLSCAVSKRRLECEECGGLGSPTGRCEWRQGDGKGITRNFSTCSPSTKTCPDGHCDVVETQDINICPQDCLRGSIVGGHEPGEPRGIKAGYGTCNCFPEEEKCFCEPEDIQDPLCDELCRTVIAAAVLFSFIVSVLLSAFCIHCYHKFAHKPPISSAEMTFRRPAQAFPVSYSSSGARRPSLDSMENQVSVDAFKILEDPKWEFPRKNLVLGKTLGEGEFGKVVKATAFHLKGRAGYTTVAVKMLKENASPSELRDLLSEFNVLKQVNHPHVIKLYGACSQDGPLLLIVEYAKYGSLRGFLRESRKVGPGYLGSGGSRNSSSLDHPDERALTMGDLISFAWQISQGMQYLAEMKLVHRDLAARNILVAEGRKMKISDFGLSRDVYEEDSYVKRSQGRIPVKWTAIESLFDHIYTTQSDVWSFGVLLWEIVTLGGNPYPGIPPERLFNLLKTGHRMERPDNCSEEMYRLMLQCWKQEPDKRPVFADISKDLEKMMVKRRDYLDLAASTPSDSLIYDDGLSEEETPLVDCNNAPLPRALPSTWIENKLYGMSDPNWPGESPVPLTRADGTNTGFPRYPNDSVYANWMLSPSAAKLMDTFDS
Sequence of MAP3K15 (Q6ZN16 whole entry): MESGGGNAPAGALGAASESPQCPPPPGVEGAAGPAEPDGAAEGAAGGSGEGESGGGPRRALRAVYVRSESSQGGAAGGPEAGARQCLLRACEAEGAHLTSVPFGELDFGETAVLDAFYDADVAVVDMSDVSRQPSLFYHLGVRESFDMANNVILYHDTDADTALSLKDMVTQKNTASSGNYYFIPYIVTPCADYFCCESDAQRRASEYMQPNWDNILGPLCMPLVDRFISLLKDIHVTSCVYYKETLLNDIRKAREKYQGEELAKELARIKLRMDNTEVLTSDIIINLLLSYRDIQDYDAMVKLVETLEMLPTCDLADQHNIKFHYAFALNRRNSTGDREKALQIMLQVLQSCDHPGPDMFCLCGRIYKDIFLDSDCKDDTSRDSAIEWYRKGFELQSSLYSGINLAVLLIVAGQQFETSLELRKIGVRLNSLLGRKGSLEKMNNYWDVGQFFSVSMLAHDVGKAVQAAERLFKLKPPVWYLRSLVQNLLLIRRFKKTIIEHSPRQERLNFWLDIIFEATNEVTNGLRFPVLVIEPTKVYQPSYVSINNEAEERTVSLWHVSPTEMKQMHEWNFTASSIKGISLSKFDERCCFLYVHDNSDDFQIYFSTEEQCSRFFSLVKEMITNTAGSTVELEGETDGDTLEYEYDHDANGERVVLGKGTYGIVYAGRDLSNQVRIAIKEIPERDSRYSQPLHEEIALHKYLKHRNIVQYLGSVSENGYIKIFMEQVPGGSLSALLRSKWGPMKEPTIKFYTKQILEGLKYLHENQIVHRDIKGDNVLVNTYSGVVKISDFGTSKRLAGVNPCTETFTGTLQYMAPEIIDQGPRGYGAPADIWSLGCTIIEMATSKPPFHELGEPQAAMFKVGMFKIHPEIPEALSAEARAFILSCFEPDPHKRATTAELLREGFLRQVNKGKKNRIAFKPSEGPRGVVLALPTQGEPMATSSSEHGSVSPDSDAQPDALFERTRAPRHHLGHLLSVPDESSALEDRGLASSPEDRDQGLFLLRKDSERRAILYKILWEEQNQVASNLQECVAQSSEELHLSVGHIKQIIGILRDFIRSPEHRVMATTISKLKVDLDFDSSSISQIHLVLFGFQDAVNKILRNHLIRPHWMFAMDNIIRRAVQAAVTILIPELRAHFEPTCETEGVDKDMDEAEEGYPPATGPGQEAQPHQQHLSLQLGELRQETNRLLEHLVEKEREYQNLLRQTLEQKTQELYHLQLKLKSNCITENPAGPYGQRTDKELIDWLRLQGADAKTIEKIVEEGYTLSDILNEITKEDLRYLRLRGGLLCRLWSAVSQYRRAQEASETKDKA
T8 sequence (Q9H3Y6 whole entry): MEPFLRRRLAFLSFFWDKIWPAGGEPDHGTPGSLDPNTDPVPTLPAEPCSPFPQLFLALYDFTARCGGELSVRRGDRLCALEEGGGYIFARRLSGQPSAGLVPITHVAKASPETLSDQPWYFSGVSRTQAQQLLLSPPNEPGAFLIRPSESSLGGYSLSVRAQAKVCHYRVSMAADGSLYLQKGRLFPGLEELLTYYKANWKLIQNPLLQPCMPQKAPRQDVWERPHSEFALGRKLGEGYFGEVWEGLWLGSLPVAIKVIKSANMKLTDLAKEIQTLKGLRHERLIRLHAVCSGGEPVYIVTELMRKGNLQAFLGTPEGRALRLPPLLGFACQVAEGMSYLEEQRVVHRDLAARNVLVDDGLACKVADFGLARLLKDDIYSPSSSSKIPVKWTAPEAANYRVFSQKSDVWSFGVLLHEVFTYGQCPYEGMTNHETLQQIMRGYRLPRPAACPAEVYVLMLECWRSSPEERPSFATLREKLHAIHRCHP
Sequence of IRAK3 (Q9Y616 whole entry): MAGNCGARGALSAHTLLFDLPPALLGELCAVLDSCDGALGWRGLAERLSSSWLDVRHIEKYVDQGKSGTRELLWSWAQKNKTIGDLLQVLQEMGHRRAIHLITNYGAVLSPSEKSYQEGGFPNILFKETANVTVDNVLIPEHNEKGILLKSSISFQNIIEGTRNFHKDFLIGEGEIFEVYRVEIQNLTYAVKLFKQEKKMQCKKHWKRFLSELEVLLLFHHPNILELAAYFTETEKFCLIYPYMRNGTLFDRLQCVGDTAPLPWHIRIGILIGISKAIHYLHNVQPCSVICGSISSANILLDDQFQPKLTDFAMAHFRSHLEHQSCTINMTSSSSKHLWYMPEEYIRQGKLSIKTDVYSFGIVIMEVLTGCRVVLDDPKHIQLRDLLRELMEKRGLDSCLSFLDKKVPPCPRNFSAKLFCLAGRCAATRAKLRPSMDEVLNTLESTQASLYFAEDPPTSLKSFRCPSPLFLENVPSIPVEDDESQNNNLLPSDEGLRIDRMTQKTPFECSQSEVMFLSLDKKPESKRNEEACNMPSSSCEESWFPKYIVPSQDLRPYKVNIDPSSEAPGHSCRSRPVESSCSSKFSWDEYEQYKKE
Sequence of CSNK2A2 (P19784 whole entry): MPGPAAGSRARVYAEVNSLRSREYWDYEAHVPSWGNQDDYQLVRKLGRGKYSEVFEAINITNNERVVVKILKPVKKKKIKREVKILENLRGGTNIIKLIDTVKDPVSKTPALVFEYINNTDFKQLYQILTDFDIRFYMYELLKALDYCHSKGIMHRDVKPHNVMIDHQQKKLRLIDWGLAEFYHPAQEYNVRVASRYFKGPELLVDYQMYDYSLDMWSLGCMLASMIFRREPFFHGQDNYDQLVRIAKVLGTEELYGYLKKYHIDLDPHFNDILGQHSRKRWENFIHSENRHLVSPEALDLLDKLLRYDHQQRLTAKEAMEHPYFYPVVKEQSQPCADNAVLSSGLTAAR
Sequence of BRK (Q13882 whole entry): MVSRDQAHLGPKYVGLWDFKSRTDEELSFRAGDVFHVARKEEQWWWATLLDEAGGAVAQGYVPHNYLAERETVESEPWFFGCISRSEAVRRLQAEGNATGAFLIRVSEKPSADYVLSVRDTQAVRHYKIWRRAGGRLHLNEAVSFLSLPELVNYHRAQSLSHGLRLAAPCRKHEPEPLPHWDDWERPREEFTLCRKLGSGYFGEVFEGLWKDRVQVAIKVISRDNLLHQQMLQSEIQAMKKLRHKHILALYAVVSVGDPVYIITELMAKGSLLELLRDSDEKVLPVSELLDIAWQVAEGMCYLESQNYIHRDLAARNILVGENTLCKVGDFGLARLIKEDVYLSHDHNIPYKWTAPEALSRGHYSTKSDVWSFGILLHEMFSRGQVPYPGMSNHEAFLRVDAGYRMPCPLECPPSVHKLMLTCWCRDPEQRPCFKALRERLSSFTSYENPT

C=CC(=O)Nc1ccc(OC)c(Nc2cc(-c3[nH]c(CC)nc3-c3cccc(NC(=O)c4cccc5c4NC(=O)c4ccccc4N5)c3)ccn2)c1 [Compound 4, N-(3-(5-(2-((5-Acrylamido-2-methoxyphenyl)amino)pyridin-4-yl)-2-ethyl-1H-imidazol-4-yl)phenyl)-11-oxo-10,11-dihydro-5H-dibenzo[b,e][1,4]diazepine-9-carboxamide]
remaining binding at 1 µM (EPHB3): 100% | remaining binding at 1 µM (TAOK2): 100% | remaining binding at 1 µM (AMPK-alpha2): 56% | remaining binding at 1 µM (CSNK2A2): 58% | remaining binding at 1 µM (PRKD1): 42% | remaining binding at 1 µM (DYRK2): 75% | remaining binding at 1 µM (MEK6): 73% | remaining binding at 1 µM (CDK5): 100% | remaining binding at 1 µM (PIK3CA(E542K)): 100% | remaining binding at 1 µM (STK33): 100% | remaining binding at 1 µM (BMPR1A): 85% | remaining binding at 1 µM (ERBB4): 4.9% | remaining binding at 1 µM (RIOK1): 100% | remaining binding at 1 µM (EPHA7): 100% | remaining binding at 1 µM (CAMK2D): 88% | remaining binding at 1 µM (GRK2): 100% | remaining binding at 1 µM (EGFR(L858R)): 5% | remaining binding at 1 µM (DMPK): 45% | remaining binding at 1 µM (CDK8): 81% | remaining binding at 1 µM (SRMS): 61% | remaining binding at 1 µM (BRK): 96% | remaining binding at 1 µM (RET(V804M)): 91% | remaining binding at 1 µM (RET(M918T)): 99% | remaining binding at 1 µM [1]: 4.7% | remaining binding at 1 µM (PKAC-beta): 98% | remaining binding at 1 µM (RIOK2): 83% | remaining binding at 1 µM (MAP3K15): 74% | remaining binding at 1 µM (SNARK): 100% | remaining binding at 1 µM (TRKB): 100% | remaining binding at 1 µM (KIT(V559D + T670I)): 95% | remaining binding at 1 µM (IRAK3): 39% | remaining binding at 1 µM (STK39): 85% | remaining binding at 1 µM (WNK2): 62% | remaining binding at 1 µM (MST1R): 85% | remaining binding at 1 µM (PDGFRB): 100% | remaining binding at 1 µM (HIPK1): 51% | remaining binding at 1 µM (ERK8): 100% | remaining binding at 1 µM (PIP5K1C): 78%

Reference: US20260224588A1, “BENZODIAZEPINONE-DERIVED INHIBITORS OF EGFR AND HER2” (The Research Foundation for the State University of New York, priority 2023, published 2026)
